Values joined by “and” are separate entries in the source; they are usually repeats but may differ in a detail not shown here. Equal values may be shown once. ± gives the expanded uncertainty stated by the source.
Conditions: Hot wire method

Which results are given for `N#N` [nitrogen]?
thermal conductivity (321.58 K, 2776.2 kPa, Gas): 0.0278 ± 0.0017 W/m/K; thermal conductivity (321.95 K, 2778.7 kPa, Gas): 0.02777 ± 0.0017 W/m/K; thermal conductivity (321.99 K, 2778.7 kPa, Gas): 0.02793 ± 0.0017 W/m/K; thermal conductivity (322.25 K, 2776.2 kPa, Gas): 0.02762 ± 0.0017 W/m/K; thermal conductivity (322.29 K, 2776.2 kPa, Gas): 0.02772 ± 0.0017 W/m/K; thermal conductivity (322.61 K, 2776.2 kPa, Gas): 0.02762 ± 0.0017 W/m/K; thermal conductivity (323.16 K, 1008.8 kPa, Gas): 0.02726 ± 0.0017 W/m/K; thermal conductivity (323.18 K, 1008.8 kPa, Gas): 0.02729 ± 0.0017 W/m/K; thermal conductivity (324.06 K, 1008.8 kPa, Gas): 0.02748 ± 0.0017 W/m/K; thermal conductivity (324.12 K, 1008.8 kPa, Gas): 0.02747 ± 0.0017 W/m/K; thermal conductivity (325.1 K, 1008.8 kPa, Gas): 0.0277 ± 0.0017 W/m/K and 0.02772 ± 0.0017 W/m/K; thermal conductivity (325.44 K, 574.1 kPa, Gas): 0.02822 ± 0.0017 W/m/K; thermal conductivity (326.18 K, 2705.7 kPa, Gas): 0.02794 ± 0.0017 W/m/K; thermal conductivity (326.24 K, 2705.7 kPa, Gas): 0.02859 ± 0.0018 W/m/K; thermal conductivity (326.43 K, 4299.5 kPa, Gas): 0.02906 ± 0.0018 W/m/K; thermal conductivity (326.51 K, 4299.5 kPa, Gas): 0.02914 ± 0.0018 W/m/K; thermal conductivity (326.67 K, 3835.8 kPa, Gas): 0.02909 ± 0.0018 W/m/K and 0.02897 ± 0.0018 W/m/K; thermal conductivity (326.72 K, 2705.7 kPa, Gas): 0.02848 ± 0.0018 W/m/K; thermal conductivity (326.75 K, 2705.7 kPa, Gas): 0.02853 ± 0.0018 W/m/K; thermal conductivity (327.32 K, 1657.7 kPa, Gas): 0.02798 ± 0.0017 W/m/K; thermal conductivity (327.57 K, 1657.7 kPa, Gas): 0.02789 ± 0.0017 W/m/K; thermal conductivity (327.66 K, 4299.5 kPa, Gas): 0.0294 ± 0.0018 W/m/K; thermal conductivity (327.7 K, 4299.5 kPa, Gas): 0.02966 ± 0.0018 W/m/K; thermal conductivity (327.84 K, 1209.3 kPa, Gas): 0.02782 ± 0.0017 W/m/K; thermal conductivity (327.85 K, 1209.3 kPa, Gas): 0.02748 ± 0.0017 W/m/K; thermal conductivity (327.86 K, 3835.8 kPa, Gas): 0.0294 ± 0.0018 W/m/K and 0.02906 ± 0.0018 W/m/K; thermal conductivity (328.83 K, 1657.7 kPa, Gas): 0.02814 ± 0.0017 W/m/K; thermal conductivity (328.85 K, 1657.7 kPa, Gas): 0.02817 ± 0.0017 W/m/K; thermal conductivity (329.15 K, 1209.3 kPa, Gas): 0.02785 ± 0.0017 W/m/K; thermal conductivity (329.17 K, 1209.3 kPa, Gas): 0.02784 ± 0.0017 W/m/K; thermal conductivity (330.94 K, 2682.6 kPa, Gas): 0.02851 ± 0.0018 W/m/K; thermal conductivity (330.96 K, 2682.6 kPa, Gas): 0.0287 ± 0.0018 W/m/K; thermal conductivity (332.04 K, 2682.6 kPa, Gas): 0.02834 ± 0.0017 W/m/K; thermal conductivity (332.12 K, 2682.6 kPa, Gas): 0.02902 ± 0.0018 W/m/K; thermal conductivity (335.72 K, 2657.4 kPa, Gas): 0.02849 ± 0.0018 W/m/K; thermal conductivity (335.73 K, 2657.4 kPa, Gas): 0.02905 ± 0.0018 W/m/K; thermal conductivity (336.01 K, 4212.3 kPa, Gas): 0.02961 ± 0.0018 W/m/K; thermal conductivity (336.02 K, 4212.3 kPa, Gas): 0.02949 ± 0.0018 W/m/K; thermal conductivity (336.33 K, 2657.4 kPa, Gas): 0.02874 ± 0.0018 W/m/K; thermal conductivity (336.36 K, 2657.4 kPa, Gas): 0.02885 ± 0.0018 W/m/K; thermal conductivity (337.13 K, 4212.3 kPa, Gas): 0.03001 ± 0.0018 W/m/K and 0.0297 ± 0.0018 W/m/K; thermal conductivity (340.86 K, 2579.4 kPa, Gas): 0.02926 ± 0.0018 W/m/K; thermal conductivity (340.87 K, 2579.4 kPa, Gas): 0.02913 ± 0.0018 W/m/K; thermal conductivity (341.16 K, 2579.4 kPa, Gas): 0.02959 ± 0.0018 W/m/K; thermal conductivity (341.21 K, 2579.4 kPa, Gas): 0.02922 ± 0.0018 W/m/K

Which thermal conductivity (318.8 K, Liquid) does the source give for `Cc1ccccc1` [toluene] here?
The thermal conductivity was 0.1241 ± 0.005 W/m/K.

And the thermal conductivity (328.48 K, Liquid)?
Its thermal conductivity is 0.1218 ± 0.0049 W/m/K.

And the thermal conductivity (333.34 K, Liquid)?
The thermal conductivity was 0.1209 ± 0.0049 W/m/K.

What about the thermal conductivity (338.23 K, Liquid) of the same molecule?
Its thermal conductivity is 0.1195 ± 0.0048 W/m/K.

What about the thermal conductivity (341.16 K, Liquid) of the same molecule?
The thermal conductivity was 0.1201 ± 0.0048 W/m/K.

And the thermal conductivity (343.09 K, Liquid)?
The thermal conductivity was 0.1176 ± 0.0047 W/m/K.

And the thermal conductivity (346.01 K, Liquid)?
Its thermal conductivity is 0.116 ± 0.0047 W/m/K.

What about the thermal conductivity (350.87 K, Liquid) of the same molecule?
The thermal conductivity was 0.1149 ± 0.0046 W/m/K.

And the thermal conductivity (355.71 K, Liquid)?
The thermal conductivity was 0.1151 ± 0.0046 W/m/K.

What about the thermal conductivity (365.42 K, Liquid) of the same molecule?
Its thermal conductivity is 0.1116 ± 0.0045 W/m/K.

What about the thermal conductivity (370.29 K, Liquid) of the same molecule?
Its thermal conductivity is 0.1112 ± 0.0045 W/m/K.
